Biological target: T1, APOL1 G2 (Homo sapiens, UniProt O14791, DEL388-389)
T1 construct: expressed in transfected cells; host or cells: HEK293 T-REx clonal line stably expressing GCaMP6f (HEK T-REx/GCaMP6f/APOL1 G2 K6.3), doxycycline induced
T1 sequence (O14791 with tags, fused parts or gaps DEL388-389): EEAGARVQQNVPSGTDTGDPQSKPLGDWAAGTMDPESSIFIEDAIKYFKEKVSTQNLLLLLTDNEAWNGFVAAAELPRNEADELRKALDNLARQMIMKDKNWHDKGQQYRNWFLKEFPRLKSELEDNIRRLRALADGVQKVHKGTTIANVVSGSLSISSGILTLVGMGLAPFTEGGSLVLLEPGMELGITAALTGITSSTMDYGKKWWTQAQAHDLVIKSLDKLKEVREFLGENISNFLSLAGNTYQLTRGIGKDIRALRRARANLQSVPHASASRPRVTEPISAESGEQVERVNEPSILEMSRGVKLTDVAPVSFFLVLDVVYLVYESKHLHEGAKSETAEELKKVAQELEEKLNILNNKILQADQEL
Experiment: APOL1-mediated calcium transport (calcium influx) assay, HEK T-REx/GCaMP6f/APOL1 G2 K6.3 cells, FLIPR TETRA
Format: cell-based
Conditions: prevention of calcium influx; geometric mean of at least 2 assay runs; † = average of a technical replicate from a single assay run
Summary of the method: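 A HEK293 T-REx clone stably expressing GCaMP6f had APOL1 G2 induced with doxycycline (20 ng/mL solution added) for 6 h. Cells were then washed into Ca2+-free Tyrode's buffer (pH 7.4) and preincubated with compounds (duplicate 8-point) for 10 min at room temperature. Ca2+ injection to 5 mM final produced FLIPR GCaMP fluorescence, giving AC50 for influx inhibition (geometric mean, ≥2 runs).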

`O=C(c1ccc(OCCN2CCC3(CC2)C(=O)Nc2ccc(Cl)cc23)cc1F)N1CCS(=O)(=O)CC1` [Compound 232, 4-[4-(2-{5-chloro-2-oxo-1,2-dihydrospiro[indole-3,4′-piperidin]-1′-yl}ethoxy)-2-fluorobenzoyl]-1λ^6-thiomorpholine-1,1-dione] and `O=C(c1ccc(OCCN2CCC3(CC2)C(=O)Nc2ccc(Cl)cc23)cc1C(F)(F)F)N1CCS(=O)(=O)CC1` [Compound 272, 4-[4-(2-{5-chloro-2-oxo-1,2-dihydrospiro[indole-3,4′-piperidin]-1′-yl}ethoxy)-2-(trifluoromethyl)benzoyl]-1λ^6-thiomorpholine-1,1-dione] are within 1.5-fold of each other in AC50: 1010 nM for the first, 921 nM for the second.

`CN(C)C(=O)C1(S(=O)(=O)c2ccc(OCCN3CCC4(CC3)C(=O)Nc3ccc(Cl)cc34)cc2)CC1` [Compound 227, 1-[4-(2-{5-chloro-2-oxo-1,2-dihydrospiro[indole-3,4′-piperidin]-1′-yl}ethoxy)benzenesulfonyl]-N,N-dimethylcyclopropane-1-carboxamide] and `CNC(=O)C1(S(=O)(=O)c2ccc(OCCN3CCC4(CC3)C(=O)Nc3ccc(Cl)cc34)cc2)CC1` [Compound 226, 1-[4-(2-{5-chloro-2-oxo-1,2-dihydrospiro[indole-3,4′-piperidin]-1′-yl}ethoxy)benzenesulfonyl]-N-methylcyclopropane-1-carboxamide] are within 1.5-fold of each other in AC50: 1110 nM for the first, 1080 nM for the second.

`CC1(O)CN(c2nccc3cc(OCCN4CCC5(CC4)C(=O)Nc4ccc(Cl)cc45)cnc23)C1` [Compound 306, 5-chloro-1′-(2-{[8-(3-hydroxy-3-methylazetidin-1-yl)-1,7-naphthyridin-3-yl]oxy}ethyl)-1,2-dihydrospiro[indole-3,4′-piperidin]-2-one] and `O=C1Nc2ccc(Cl)cc2C12CCN(CCOc1cnc3c(N4CC(O)C4)nccc3c1)CC2` [Compound 314, 5-chloro-1′-(2-{[8-(3-hydroxyazetidin-1-yl)-1,7-naphthyridin-3-yl]oxy}ethyl)-1,2-dihydrospiro[indole-3,4′-piperidin]-2-one] are within 1.5-fold of each other in AC50: 1400 nM for the first, 968 nM for the second.

`CS(=O)(=O)c1ccc(OCCN2CCC3(CC2)C(=O)N(CCO)c2ccc(Br)cc23)cc1` [Compound 24, 5-bromo-1-(2-hydroxyethyl)-1′-[2-(4-methanesulfonylphenoxy)ethyl]-1,2-dihydrospiro[indole-3,4′-piperidin]-2-one] and `CS(=O)(=O)c1ccc(OCCN2CCC3(CC2)C(=O)N(CCO)c2ccc(Cl)cc23)cc1` [Compound 18, 5-chloro-1-(2-hydroxyethyl)-1′-[2-(4-methanesulfonylphenoxy)ethyl]-1,2-dihydrospiro[indole-3,4′-piperidin]-2-one] are within 1.5-fold of each other in AC50: 200 nM for the first, 240 nM for the second.

Going from `N#Cc1ccc2c(c1)C1(CCN(CCOc3ccc(C(N)=O)c(F)c3)CC1)C(=O)N2` [Compound 238, 4-(2-{5-cyano-2-oxo-1,2-dihydrospiro[indole-3,4′-piperidin]-1′-yl}ethoxy)-2-fluorobenzamide] to `O=C(c1ccc(OCCN2CCC3(CC2)C(=O)Nc2ccc(Cl)cc23)cc1F)N1CC(O)C1` [Compound 235, 5-chloro-1′-{2-[3-fluoro-4-(3-hydroxyazetidine-1-carbonyl)phenoxy]ethyl}-1,2-dihydrospiro[indole-3,4′-piperidin]-2-one], the AC50 rises from 285 nM to 1000 nM (3.5-fold).

`CN1C(=O)C2(CCN(CCOc3ccc(C4(S(C)(=O)=O)CC(O)C4)cc3)CC2)c2cc(C(F)F)ccc21` (single isomer, unassigned) [Compound 278, 5-(difluoromethyl)-1-methyl-1′-(2-{4-[(cis) or (trans)-3-hydroxy-1-methanesulfonylcyclobutyl]phenoxy}ethyl)-1,2-dihydrospiro[indole-3,4′-piperidin]-2-one] and `CN1C(=O)C2(CCN(CCOc3ccc(S(=O)(=O)CCCS(C)(=O)=O)cc3)CC2)c2cc(Cl)ccc21` [Compound 23, 5-chloro-1′-{2-[4-(3-methanesulfonylpropanesulfonyl)phenoxy]ethyl}-1-methyl-1,2-dihydrospiro[indole-3,4′-piperidin]-2-one] are within 1.5-fold of each other in AC50: 769 nM for the first, 514 nM for the second.

First: Cc1n[nH]cc1-c1ccc(OCCN2CCC3(CC2)C(=O)Nc2ccc(Cl)cc23)cc1 [Compound 244, 5-chloro-1′-{2-[4-(5-methyl-1H-pyrazol-4-yl)phenoxy]ethyl}-1,2-dihydrospiro[indole-3,4′-piperidin]-2-one]
Second: CS(=O)(=O)Nc1ccc(OCCN2CCC3(CC2)C(=O)Nc2ccc(Cl)cc23)cc1 [Compound 214, N-[4-(2-{5-chloro-2-oxo-1,2-dihydrospiro[indole-3,4′-piperidin]-1′-yl}ethoxy)phenyl]methanesulfonamide]
The AC50 of the first is 3-fold higher: 1060 nM for the first, 355 nM for the second.

Going from `COCCN1C(=O)C2(CCN(CCOc3ccc(S(C)(=O)=O)cc3)CC2)c2cc(Cl)ccc21` [Compound 20, 5-chloro-1′-[2-(4-methanesulfonylphenoxy)ethyl]-1-(2-methoxyethyl)-1,2-dihydrospiro[indole-3,4′-piperidin]-2-one] to `CS(=O)(=O)NC1CN(C(=O)c2ccc(OCCN3CCC4(CC3)C(=O)Nc3ccc(Cl)cc34)cc2F)C1` [Compound 237, N-{1-[4-(2-{5-chloro-2-oxo-1,2-dihydrospiro[indole-3,4′-piperidin]-1′-yl}ethoxy)-2-fluorobenzoyl]azetidin-3-yl} methanesulfonamide], the AC50 rises from 348 nM to 3310 nM (9.5-fold).

Going from `CC(O)c1ncc(OCCN2CCC3(CC2)C(=O)Nc2ccc(Cl)cc23)cc1C(F)(F)F` (single isomer, unassigned) [Compound 291, 5-chloro-1′-[2-({6-[(1R) or (1S)-1-hydroxyethyl]-5-(trifluoromethyl)pyridin-3-yl}oxy)ethyl]-1,2-dihydrospiro[indole-3,4′-piperidin]-2-one] to `CC(O)c1ncc(OCCN2CCC3(CC2)C(=O)Nc2ccc(Cl)cc23)cn1` (single isomer, unassigned) [Compound 285, 5-chloro-1′-[2-({2-[(1S) or (1R)-1-hydroxyethyl]pyrimidin-5-yl}oxy)ethyl]-1,2-dihydrospiro[indole-3,4′-piperidin]-2-one], the AC50 falls from 1190 nM to 714 nM (1.7-fold).

`C[C@]1(O)C[C@@H](N2C(=O)CCc3cc(OCCN4CCC5(CC4)C(=O)Nc4ccc(C(F)F)cc45)cnc32)C1` [Compound 274, 5-(difluoromethyl)-1′-[2-({7-oxo-8-[(cis)-3-hydroxy-3-methylcyclobutyl]-5,6,7,8-tetrahydro-1,8-naphthyridin-3-yl}oxy)ethyl]-1,2-dihydrospiro[indole-3,4′-piperidin]-2-one] and `O=C1CCc2cc(OCCN3CCC4(CC3)C(=O)Nc3ccc(Cl)cc34)cnc2N1[C@H]1C[C@@](O)(C2CC2)C1` (single isomer, unassigned) [Compound 297, 5-chloro-1′-[2-({7-oxo-8-[(trans)-3-cyclopropyl-3-hydroxycyclobutyl]-5,6,7,8-tetrahydro-1,8-naphthyridin-3-yl}oxy)ethyl]-1,2-dihydrospiro[indole-3,4′-piperidin]-2-one] are within 1.5-fold of each other in AC50: 722 nM for the first, 937 nM for the second.

`C[C@@H](COc1ccc(S(C)(=O)=O)c(C(F)F)c1)N1CCC2(CC1)C(=O)Nc1ccc(Cl)cc12` (single isomer, unassigned) [Compound 210] and `C[C@@H](COc1ccc(S(C)(=O)=O)c(C(F)F)c1)N1CCC2(CC1)C(=O)Nc1ccc(C#N)cc12` (single isomer, unassigned) [Compound 212] are within 1.5-fold of each other in AC50: 1540 nM for the first, 1360 nM for the second.

`CN(C)C(=O)C1(c2ccc(OCCN3CCC4(CC3)C(=O)Nc3ccc(C#N)cc34)cc2)COC1` [Compound 254, 3-[4-(2-{5-cyano-2-oxo-1,2-dihydrospiro[indole-3,4′-piperidin]-1′-yl}ethoxy)phenyl]-N,N-dimethyloxetane-3-carboxamide] and `CC(COc1ccc2c(c1)CCC(=O)N2C)N1CCC2(CC1)C(=O)Nc1ccc(C#N)cc12` (single isomer, unassigned) [Compound 203, (S) or (R)-1′-{1-[(1-methyl-2-oxo-1,2,3,4-tetrahydroquinolin-6-yl)oxy]propan-2-yl}-2-oxo-1,2-dihydrospiro[indole-3,4′-piperidine]-5-carbonitrile] are within 1.5-fold of each other in AC50: 898 nM for the first, 1190 nM for the second.

Compared with `O=C1CCc2cc(OCCN3CCC4(CC3)C(=O)Nc3ccc(Cl)cc34)cnc2N1CCO` [Compound 192, 5-chloro-1′-(2-{[8-(2-hydroxyethyl)-7-oxo-5,6,7,8-tetrahydro-1,8-naphthyridin-3-yl]oxy}ethyl)-1,2-dihydrospiro[indole-3,4′-piperidin]-2-one], `CC(C)(O)c1ncc(OCCN2CCC3(CC2)C(=O)Nc2ccc(Cl)cc23)cn1` [Compound 305, 5-chloro-1′-(2-{[2-(2-hydroxypropan-2-yl)pyrimidin-5-yl]oxy}ethyl)-1,2-dihydrospiro[indole-3,4′-piperidin]-2-one] is 2.2-fold higher in AC50: 291 nM for the first, 649 nM for the second.

`CC(COc1ccc2c(c1)CCC(=O)N2C)N1CCC2(CC1)C(=O)Nc1ccc(Cl)cc12` (single isomer, unassigned) [Compound 200] and `CN1C(=O)C2(CCN(CCOc3cc(F)c(C(=O)N4CCS(=O)(=O)CC4)c(F)c3)CC2)c2cc(C#N)ccc21` [Compound 260, 1′-{2-[4-(1,1-dioxo-1λ^6-thiomorpholine-4-carbonyl)-3,5-difluorophenoxy]ethyl}-1-methyl-2-oxo-1,2-dihydrospiro[indole-3,4′-piperidine]-5-carbonitrile] are within 1.5-fold of each other in AC50: 1200 nM for the first, 1380 nM for the second.
